SMILES strings stand for the structures. Where “and” joins values, the source holds several entries; their conditions need not be identical. Identical values can stand only once.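 Tested at 5 concentrations; 48 h exposure; 96-well plates; endpoints linearly interpolated, else capped at highest concentration. At the GI50, growth is halved. TGI: total growth inhibition.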

3 compounds from PubChem BioAssay (NCI) can be followed below.

Test systems include M19-MEL melanoma; SN12K1 renal; RXF-631 renal; LXFL 529 NSCLC; DMS 114 small cell lung; MDA-N; DLD-1 colon; DMS 273 small cell lung; HOP-18 NSCLC; KM20L2 colon.
Holding throughout (experiment): NCI anticancer screen, dose series, 48 h

`CCOC(=O)NC1=C(N2CC2)C(=O)C(NC(=O)OCC)=C(N2CC2)C1=O`: the TGI with M19-MEL melanoma was 19.2 µM and 12.5 µM; in the assay on SN12K1 renal it was 15.7 µM; in the assay with RXF-631 renal, 30.3 µM and 54.6 µM; in the assay on LXFL 529 NSCLC, 15 µM and 9.51 µM; with DMS 114 small cell lung it was 7.85 µM and 7.33 µM; with MDA-N it was 5.41 µM. The TGI is 38 µM and 78.9 µM with DLD-1 colon; 20.5 µM and 41.4 µM with DMS 273 small cell lung; 24.4 µM and 49.9 µM in the assay on HOP-18 NSCLC; 31.6 µM and 45.3 µM in the assay with KM20L2 colon. For the same compound, the GI50 in the assay on RXF-631 renal is 6.73 µM and 14.4 µM; in the assay with LXFL 529 NSCLC, 4.34 µM; in the assay on DMS 114 small cell lung, 3.49 µM; with DLD-1 colon it was 8.56 µM; in the assay with DMS 273 small cell lung, 1.01 µM; with HOP-18 NSCLC, 8.57 µM.
Turning to `OC(C1CO1)C(O)C1CO1` (stereo not drawn), the TGI in the assay with M19-MEL melanoma was 150 µM; in the assay on SN12K1 renal it was 150 µM; with DMS 114 small cell lung it was 150 µM; in the assay on MDA-N, 134 µM and 284 µM; with DLD-1 colon it was more than 150 µM; in the assay on DMS 273 small cell lung, 76.9 µM. Besides, the TGI in the assay with HOP-18 NSCLC and in the assay with KM20L2 colon was 150 µM in each case. In the assay with MDA-N, the GI50 is 92.2 µM.
Consider `O=C(NCCCCCCNC(=O)n1cc(F)c(=O)[nH]c1=O)NCCCOCCOCCOCCOCCOCCOCCOCCOCCOCCOCCOCCOCCOCCOCCOCCOCCOCCOCCOCCOCCOCCCNC(=O)C(O)C(O)C(OC1OC(CO)C(O)C(O)C1O)C(O)CO` (stereo not drawn), for which the TGI in the assay with M19-MEL melanoma, with SN12K1 renal, with DMS 114 small cell lung, with MDA-N, in the assay with DLD-1 colon and in the assay with DMS 273 small cell lung was more than 100 µM in each case. In addition, the TGI in the assay with HOP-18 NSCLC and in the assay with KM20L2 colon was more than 100 µM throughout.
